Article PMC5814047, “Peptidic inhibitors of insulin-degrading enzyme with potential for dermatological applications discovered via phage display” (PLoS ONE, 2018)
“And” between values parts separate entries of the source, which are not always exact repeats. Equal values may be shown once. Ends that are not written are not given here.

Key:
IDE [1] = target: T1, IDE (Homo sapiens, UniProt P14735); test: biochemical; conditions: for IC50: insulin ELISA assay, dose-response
T1 construct: made in house; host or cells: bacteria
T1 sequence (P14735 1-1019): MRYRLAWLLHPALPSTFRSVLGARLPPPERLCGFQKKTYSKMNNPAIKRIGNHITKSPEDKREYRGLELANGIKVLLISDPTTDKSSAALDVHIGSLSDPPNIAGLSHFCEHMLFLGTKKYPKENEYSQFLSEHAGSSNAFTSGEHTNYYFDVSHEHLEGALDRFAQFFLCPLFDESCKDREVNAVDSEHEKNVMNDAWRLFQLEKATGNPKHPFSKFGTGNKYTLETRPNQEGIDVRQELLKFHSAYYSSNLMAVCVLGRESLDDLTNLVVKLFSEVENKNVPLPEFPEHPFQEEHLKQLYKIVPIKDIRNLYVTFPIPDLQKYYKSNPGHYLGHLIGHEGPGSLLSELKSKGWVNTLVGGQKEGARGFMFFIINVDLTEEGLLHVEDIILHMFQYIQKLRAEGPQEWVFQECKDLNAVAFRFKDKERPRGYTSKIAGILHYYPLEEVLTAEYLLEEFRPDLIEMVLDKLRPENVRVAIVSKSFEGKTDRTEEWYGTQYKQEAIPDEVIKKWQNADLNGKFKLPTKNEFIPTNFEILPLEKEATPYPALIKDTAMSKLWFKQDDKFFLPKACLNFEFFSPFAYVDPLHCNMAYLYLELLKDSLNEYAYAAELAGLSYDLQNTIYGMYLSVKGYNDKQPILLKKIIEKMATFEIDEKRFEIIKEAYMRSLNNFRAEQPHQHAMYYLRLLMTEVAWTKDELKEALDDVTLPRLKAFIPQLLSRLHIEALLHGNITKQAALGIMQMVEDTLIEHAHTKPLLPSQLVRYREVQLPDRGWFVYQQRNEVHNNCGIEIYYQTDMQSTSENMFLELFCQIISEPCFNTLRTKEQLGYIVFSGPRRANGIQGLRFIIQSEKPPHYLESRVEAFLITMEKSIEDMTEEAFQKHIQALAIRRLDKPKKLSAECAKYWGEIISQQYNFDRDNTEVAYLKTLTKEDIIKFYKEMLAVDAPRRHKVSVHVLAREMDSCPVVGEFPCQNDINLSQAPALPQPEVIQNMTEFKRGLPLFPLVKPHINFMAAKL
From the text: The six selected peptide sequences (C7C-1, C7C-2, 12–1, 12–2, 12–3 and 12–4) were synthesized, together with a variety of modifications, yielding a total of 25 peptides (Table 1). For the 12-mer peptides, we synthesized variants of the parent peptides truncated at one or both termini, to test whether the entire sequence was necessary or not, in the hope that shorter, and thus less expensive, sequences might be effective. Other modifications included N-terminal acetylation and C-terminal amidation, included to mimic the charge state of the peptides when incorporated in the phage coat protein (Table 1). To assess the extent to which these peptide sequences inhibit IDE, we quantified their potency in protease activity assays using recombinant human IDE and two different substrates: FRET1, a fluorogenic peptide, and recombinant human insulin.
(§1) IDE activity was quantified by monitoring the degradation of Mca-[…](Dnp) (FRET1, 5 μM), fluoresceinated and biotinylated amyloid ß-protein (FAßB; 500 nM) or recombinant human insulin (50 nM) in PBS supplemented with 0.05% BSA. FRET1 degradation was measured by changes in fluorescence (λex = 340 nm, λem = 420 nm); FAßB degradation was monitored by fluorescence polarization (λex = 488 nm, λem = 525 nm), as described; and insulin degradation was quantified by ELISA. In vitro activity assays incorporated recombinant human IDE (1 nM) purified from bacteria. For quantitation of insulin degradation in primary murine skin fibroblasts, cells (1 x 10^5/well) were plated in 96-well plates and maintained in DMEM supplemented with 10% fetal bovine serum (FBS), 2mM glutamine, penicillin and streptomycin. After addition of insulin (10 nM or 100 nM), samples of conditioned medium were removed daily and quickly frozen, then insulin levels were quantified in parallel by ELISA according to manufacturer’s recommendations (Crystal Chem, Downers Grove, IL, USA). Assessment of the activity of P12-3A against a variety of matrix-metalloproteases was conducted using the Matrix Metalloproteinase (MMP) Inhibitor Profiling Kit, Fluorometric RED (Enzo Life Sciences, Inc., Farmingdale, NY, USA) according to manufacturer’s recommendations using the broad-spectrum MMP inhibitor, NNGH, as a positive control.

IDE [2] = target: T1, IDE; test: biochemical; conditions: for IC50: dose-response, FRET1; for Percent activity at 500 uM, Mean: N 4
Method: The six selected peptide sequences (C7C-1, C7C-2, 12–1, 12–2, 12–3 and 12–4) were synthesized, together with a variety of modifications, yielding a total of 25 peptides (Table 1). […] Other modifications included N-terminal acetylation and C-terminal amidation, included to mimic the charge state of the peptides when incorporated in the phage coat protein (Table 1).
as §1, with “FRET1 degradation was measured by changes in fluorescence (λex = 340 nm, λem = 420 nm); FAßB degradation was monitored by fluorescence polarization (λex = 488 nm, λem = 525 nm), as described; and insulin degradation was quantified by ELISA.” left out

IDE [3] = target: T1, IDE; test: Vulnerability of peptides to degradation by IDE: 0 vs 4 h pre-incubation, then FRET1 assay; format: biochemical; conditions: for IC50: FRET1 assay
Method: as §1, with “FRET1 degradation was measured by changes in fluorescence (λex = 340 nm, λem = 420 nm); FAßB degradation was monitored by fluorescence polarization (λex = 488 nm, λem = 525 nm), as described; and insulin degradation was quantified by ELISA.” left out

[4] = peptide at 10 uM, insulin 100 nM, normalized to DMSO-only and no-enzyme controls

Substance: VHWDFRQW-NH2 [P12-1B]
- IC50 (IDE [1]; Replicates 1-3, read-out: IC50s, individual replicates): 20.6 µM and 9.35 µM and 12.2 µM
- IC50 (IDE [1]; N=3, read-out: IC50s, Mean): 14 µM
- Ki (IDE [1]; substrate recombinant human insulin 50 nM, Ki from IC50 with the Cheng-Prusoff equation): 7 ± 1.7 µM
- Ki (IDE [2]; Cheng-Prusoff, KM 10 uM, substrate concentration 5 uM, read-out: Ki values, Mean): 40.9 µM
- IC50 (IDE [2]; individual runs, read-out: IC50s, Run 1-6): 52.2 µM and 51.3 µM and 80.5 µM
- IC50 (IDE [2]; read-out: IC50s, Mean): 61.4 µM
- IC50 <500 uM? (IDE [2]; initial test at 500 uM): YES
- remaining activity at 500 µM (IDE [2]; judged as IC50 <100 uM?, individual replicates, read-out: Percent activity at 500 uM, Replicate 1-4): 32.1%
- Ki (IDE [2]; substrate FRET1 5 μM, Ki from IC50 with the Cheng-Prusoff equation, read-out: Ki FRET1): 41 ± 6.4 µM
- Ki (IDE [3]; 4-hr incubation, Cheng-Prusoff from IC50, FRET1 KM 10 uM, substrate 5 uM): 131 µM
- remaining activity at 0.12207 µM (IDE [3]; 4 h, 4-hr incubation, Cmpd 0.12207 uM, relative to DMSO-only controls, individual runs, read-out: Percent Activity (normalized initial velocity of FRET1 hydrolysis)): 90.2%
- remaining activity at 0.488281 µM (IDE [3]; 4 h, 4-hr incubation, Cmpd 0.488281 uM, relative to DMSO-only controls, individual runs, read-out: Percent Activity (normalized initial velocity of FRET1 hydrolysis)): 82.8%
- remaining activity at 1.95312 µM (IDE [3]; 4 h, 4-hr incubation, Cmpd 1.95312 uM, relative to DMSO-only controls, individual runs, read-out: Percent Activity (normalized initial velocity of FRET1 hydrolysis)): 80.5%
- remaining activity at 7.8125 µM (IDE [3]; 4 h, 4-hr incubation, Cmpd 7.8125 uM, relative to DMSO-only controls, individual runs, read-out: Percent Activity (normalized initial velocity of FRET1 hydrolysis)): 70.1%
- remaining activity at 31.25 µM (IDE [3]; 4 h, 4-hr incubation, Cmpd 31.25 uM, relative to DMSO-only controls, individual runs, read-out: Percent Activity (normalized initial velocity of FRET1 hydrolysis)): 51.8%
- remaining activity at 125 µM (IDE [3]; 4 h, 4-hr incubation, Cmpd 125 uM, relative to DMSO-only controls, individual runs, read-out: Percent Activity (normalized initial velocity of FRET1 hydrolysis)): 36.3%
- remaining activity at 500 µM (IDE [3]; 4 h, 4-hr incubation, Cmpd 500 uM, relative to DMSO-only controls, individual runs, read-out: Percent Activity (normalized initial velocity of FRET1 hydrolysis)): 9.02%
- IC50 (IDE [3]; 0-hr incubation, mean of runs, read-out: IC50s, Mean): 61.4 µM
- IC50 (IDE [3]; 4-hr incubation, individual replicates, read-out: IC50s): 200 µM and 193 µM
- IC50 (IDE [3]; 4-hr incubation, mean of 2 replicates, read-out: IC50s, Mean): 197 µM

Substance: WCYPHCVT [P12-3C]
- percent decrease in insulin detected by ELISA, Replicate 1 (IDE [1]; [4]): 111.9%
- percent decrease in insulin detected by ELISA, Replicate 2 (IDE [1]; [4]): 145.7%
- percent decrease in insulin detected by ELISA, Replicate 3 (IDE [1]; [4]): 105.6%
- percent decrease in insulin detected by ELISA, Replicate 4 (IDE [1]; [4]): 114.6%
- percent decrease in insulin detected by ELISA, Mean (IDE [1]; peptide at 10 uM, insulin 100 nM, normalized to DMSO-only and no-enzyme controls, N=4): 119.5%
- Percent activity at 500 uM, Mean (IDE [2]; initial test, percent of initial velocity relative to DMSO-only controls): 6.4%
- Percent activity at 500 uM, Mean (IDE [2]; judged as IC50 <100 uM?): 29.8%
- Percent Activity (normalized initial velocity of FRET1 hydrolysis) (IDE [3]; 0-hr incubation, Cmpd 0.12207 uM, relative to DMSO-only controls, individual runs): 87.1275% and 89.107% and 97.5567%
- Percent Activity (normalized initial velocity of FRET1 hydrolysis) (IDE [3]; 0-hr incubation, Cmpd 0.488281 uM, relative to DMSO-only controls, individual runs): 88.274% and 92.2277% and 96.9846%
- Percent Activity (normalized initial velocity of FRET1 hydrolysis) (IDE [3]; 0-hr incubation, Cmpd 1.95312 uM, relative to DMSO-only controls, individual runs): 91.5093% and 89.6687% and 99.5643%
- Percent Activity (normalized initial velocity of FRET1 hydrolysis) (IDE [3]; 0-hr incubation, Cmpd 7.8125 uM, relative to DMSO-only controls, individual runs): 83.3253% and 88.0997% and 90.5388%
- Percent Activity (normalized initial velocity of FRET1 hydrolysis) (IDE [3]; 0-hr incubation, Cmpd 31.25 uM, relative to DMSO-only controls, individual runs): 61.5604% and 65.1463% and 71.7432%
- Percent Activity (normalized initial velocity of FRET1 hydrolysis) (IDE [3]; 0-hr incubation, Cmpd 125 uM, relative to DMSO-only controls, individual runs): 22.5624% and 28.2506% and 30.6967%
- Percent Activity (normalized initial velocity of FRET1 hydrolysis) (IDE [3]; 0-hr incubation, Cmpd 500 uM, relative to DMSO-only controls, individual runs): 2.879% and 4.537% and 8.696%
- Percent Activity (normalized initial velocity of FRET1 hydrolysis) (IDE [3]; 4-hr incubation, Cmpd 0.12207 uM, relative to DMSO-only controls, individual runs): 96.239% and 102.101%
- Percent Activity (normalized initial velocity of FRET1 hydrolysis) (IDE [3]; 4-hr incubation, Cmpd 0.488281 uM, relative to DMSO-only controls, individual runs): 100.910% and 100.775%
- Percent Activity (normalized initial velocity of FRET1 hydrolysis) (IDE [3]; 4-hr incubation, Cmpd 1.95312 uM, relative to DMSO-only controls, individual runs): 100.923% and 102.486%
- Percent Activity (normalized initial velocity of FRET1 hydrolysis) (IDE [3]; 4-hr incubation, Cmpd 7.8125 uM, relative to DMSO-only controls, individual runs): 97.345% and 105.750%
- Percent Activity (normalized initial velocity of FRET1 hydrolysis) (IDE [3]; 4-hr incubation, Cmpd 31.25 uM, relative to DMSO-only controls, individual runs): 94.256% and 100.607%
- Percent Activity (normalized initial velocity of FRET1 hydrolysis) (IDE [3]; 4-hr incubation, Cmpd 125 uM, relative to DMSO-only controls, individual runs): 90.993% and 91.075%
- Percent Activity (normalized initial velocity of FRET1 hydrolysis) (IDE [3]; 4-hr incubation, Cmpd 500 uM, relative to DMSO-only controls, individual runs): 24.626% and 23.530%
